Data: US6903095B2, “Phthalimido derivatives and a process for their preparation” (Hoffmann-La Roche Inc., priority 2002, dated 2005)
pIC50: −log10 of the molar value. Where a name gives a salt, the structure may show the parent alone.

Legend:
[1] = molecular target: T1, human MAO-B (Homo sapiens, UniProt P27338); assay: MAO-B enzymatic activity, spectrophotometric assay (Amplex Red, tyramine substrate) on membranes of transfected EBNA cells; format: biochemical; details: 30 min preincubation at 37° C., pH 7.4, tyramine substrate
T1 construct: expressed in transfected cells; host or cells: EBNA cells (transient transfection; cell membranes used)
T1 sequence (P27338 1-520): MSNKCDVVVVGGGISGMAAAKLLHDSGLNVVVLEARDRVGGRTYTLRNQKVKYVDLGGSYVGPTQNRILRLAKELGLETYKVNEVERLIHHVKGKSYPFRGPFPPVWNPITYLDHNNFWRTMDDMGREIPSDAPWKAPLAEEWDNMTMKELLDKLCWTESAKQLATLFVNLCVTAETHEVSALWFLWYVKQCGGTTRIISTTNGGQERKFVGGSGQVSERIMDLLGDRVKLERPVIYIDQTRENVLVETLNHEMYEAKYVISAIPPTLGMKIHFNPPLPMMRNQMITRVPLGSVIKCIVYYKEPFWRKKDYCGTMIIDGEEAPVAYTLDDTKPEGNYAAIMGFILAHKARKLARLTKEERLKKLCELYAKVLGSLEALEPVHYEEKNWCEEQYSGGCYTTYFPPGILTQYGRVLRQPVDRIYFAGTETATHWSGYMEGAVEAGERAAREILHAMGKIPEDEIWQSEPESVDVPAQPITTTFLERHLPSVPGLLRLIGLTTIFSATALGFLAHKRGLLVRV
Method: (§1) The cDNA's encoding human MAO-A and MAO-B were transiently transfected into EBNA cells using the procedure described by E.-J. Schlaeger and K. Christensen (Transient Gene Expression in Mammalian Cells Grown in Serum-free Suspension Culture; Cytotechnology, 15: 1-13, 1998). After transfection, cells were homogenized by means of a Polytron homogenizer in 20 mM Tris HCl buffer, pH 8.0, containing 0.5 mM EGTA and 0.5 mM phenylmethanesulfonyl fluoride. Cell membranes were obtained by centrifugation at 45,000×g and, after two rinsing step with 20 mM Tris HCl buffer, pH 8.0, containing 0.5 mM EGTA, membranes were eventually re-suspended in the above buffer and aliquots stored at −80° C. until use.
(§2) MAO-A and MAO-B enzymatic activity was assayed in 96-well-plates using a spectrophotometric assay adapted from the method described by M. Zhou and N. Panchuk-Voloshina (A One-Step Fluorometric Method for the Continuous Measurement of Monoamine Oxidase Activity, Analytical Biochemistry, 253: 169-174, 1997). Briefly, membrane aliquots were incubated in 0.1 M potassium phosphate buffer, pH 7.4, for 30 min at 37° C. with or without various concentrations of the compounds. After this period, the enzymatic reaction was started by the addition of the MAO substrate tyramine together with 1 U/ml horse-radish peroxidase (Roche Biochemicals) and 80 μM N-acetyl-3,7,-dihydroxyphenoxazine (Amplex Red, Molecular Probes). The samples were further incubated for 30 min at 37° C. in a final volume of 200 μl and absorbance was then determined at a wavelength of 570 nm using a SpectraMax plate reader (Molecular Devices). Background (non-specific) absorbance was determined in the presence of 10 μM clorgyline for MAO-A or 10 μM L-deprenyl for MAO-B.
(§3) IC50 values were determined from inhibition curves obtained using nine inhibitor concentrations in duplicate, by fitting data to a four parameter logistic equation using a computer program.

[2] = molecular target: T2, human MAO-A (Homo sapiens, UniProt P21397); assay: MAO-A enzymatic activity, spectrophotometric assay (Amplex Red, tyramine substrate) on membranes of transfected EBNA cells; format: biochemical; details: 30 min preincubation at 37° C., pH 7.4, tyramine substrate
T2 construct: expressed in transfected cells; host or cells: EBNA cells (transient transfection; cell membranes used)
T2 sequence (P21397 1-527): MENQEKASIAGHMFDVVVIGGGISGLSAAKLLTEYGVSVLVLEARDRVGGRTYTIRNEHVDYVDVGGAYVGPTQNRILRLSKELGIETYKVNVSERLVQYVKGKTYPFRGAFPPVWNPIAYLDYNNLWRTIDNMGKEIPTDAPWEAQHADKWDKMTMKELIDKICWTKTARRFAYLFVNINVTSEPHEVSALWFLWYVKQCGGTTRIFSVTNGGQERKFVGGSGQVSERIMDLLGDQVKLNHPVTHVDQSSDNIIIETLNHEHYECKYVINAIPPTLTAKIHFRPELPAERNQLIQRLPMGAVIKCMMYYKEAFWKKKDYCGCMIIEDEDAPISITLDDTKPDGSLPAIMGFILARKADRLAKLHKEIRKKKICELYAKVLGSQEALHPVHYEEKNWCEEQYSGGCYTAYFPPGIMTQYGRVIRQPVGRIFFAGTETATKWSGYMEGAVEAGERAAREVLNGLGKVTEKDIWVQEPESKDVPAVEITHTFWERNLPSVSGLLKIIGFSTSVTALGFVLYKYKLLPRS
Method: as §1, §2, §3

Row | SMILES | pIC50 [1] | pIC50 [2]
1 | C[C@@H](C(N)=O)N1C(=O)c2ccc(OCc3ccc(F)cc3)cc2C1=O [Example 2, (S)-2-[5-(4-Fluoro-benzyloxy)-1,3-dioxo-1,3-dihydro-isoindol-2-yl]-propionamide] | 8.10 | 6.11
2 | N#CCN1C(=O)c2ccc(OCc3ccc(F)cc3)cc2C1=O [Example 7] | 7.47 | < 5.00
3 | NCCN1C(=O)c2ccc(OCc3ccc(F)cc3)cc2C1=O [Example 9, 2-(2-Amino-ethyl)-5-(4-fluoro-benzyloxy)-isoindole-1,3-dione 1:1 hydrochloride] | 7.49 | < 5.00
4 | O=C1c2ccc(OCc3ccc(F)cc3)cc2C(=O)N1CCO [Example 12, 5-(4-Fluoro-benzyloxy)-2-(2-hydroxy-ethyl)-isoindole-1,3-dione] | 8.40 | 6.43
5 | NC(=O)[C@H](CO)N1C(=O)c2ccc(OCc3ccc(F)cc3)cc2C1=O [Example 14, (S)-2-[5-(4-Fluoro-benzyloxy)-1,3-dioxo-1,3-dihydro-isoindol-2-yl]-3-hydroxy-propionamide] | 7.77 | < 5.00
6 | CCSCCN1C(=O)c2ccc(OCc3ccc(F)cc3)cc2C1=O [Example 19, 2-(2-Ethylsulfanyl-ethyl)-5-(4-fluoro-benzyloxy)-isoindole-1,3-dione] | 7.96 | < 5.00
7 | NC(=O)CC(O)CN1C(=O)c2ccc(OCc3ccc(F)cc3)cc2C1=O (stereo not drawn) [Example 22, 4-[5-(4-Fluoro-benzyloxy)-1,3-dioxo-1,3-dihydro-isoindol-2-yl]-3-hydroxy-butyramide] | 7.01 | < 5.00
8 | COC[C@H](C)N1C(=O)c2ccc(OCc3ccc(Br)cc3)cc2C1=O [Example 28, (S)-5-(4-Bromo-benzyloxy)-2-(2-methoxy-1-methyl-ethyl)-isoindole-1,3-dione] | 7.47 | < 5.00
9 | COC[C@H](C)N1C(=O)c2ccc(OCc3cccc(OC)c3)cc2C1=O [Example 29, (S)-5-(3-Methoxy-benzyloxy)-2-(2-methoxy-1-methyl-ethyl)-isoindole-1,3-dione] | 7.16 | < 5.00
10 | COC[C@H](C)N1C(=O)c2ccc(OCc3ccc(C#N)cc3)cc2C1=O [Example 30, (S)-4-[2-(2-Methoxy-1-methyl-ethyl)-1,3-dioxo-2,3-dihydro-1H-isoindol-5-yloxymethyl]-bezonitrile] | 6.89 | 5.21
11 | COC[C@H](C)N1C(=O)c2ccc(OCc3ccc(F)c(F)c3)cc2C1=O [Example 31, (S)-5-(3,4-Difluoro-benzyloxy)-2-(2-methoxy-1-methyl-ethyl)-isoindole-1,3-dione] | 7.49 | 5.46
12 | COC[C@H](C)N1C(=O)c2ccc(OCc3ccc(OC(F)(F)F)cc3)cc2C1=O [Example 32, (S)-2-(2-Methoxy-1-methyl-ethyl)-5-(4-trifluoromethoxy-benzyloxy)-isoindole-1,3-dione] | 7.33 | < 5.00
13 | O=C1c2ccc(OCc3ccc(F)cc3)cc2C(=O)N1Cc1cccs1 [Example 34, 5-(4-Fluoro-benzyloxy)-2-thiophen-2-ylmethyl-isoindole-1,3-dione] | 7.09 | < 5.00
14 | CC[S+]([O-])CCN1C(=O)c2ccc(OCc3ccc(F)cc3)cc2C1=O (stereo not drawn) [Example 38, 2-(2-Ethanesulfinyl-ethyl)-5-(4-fluoro-benzyloxy)-isoindole-1,3-dione] | 6.94 | < 5.00
15 | COC(CN1C(=O)c2ccc(OCc3ccc(F)cc3)cc2C1=O)C(F)(F)F (stereo not drawn) [Example 43] | 7.35 | < 5.00
16 | C[C@@H](C(N)=O)N1C(=O)c2ccc(OCc3cccc(F)c3)cc2C1=O [Example 44, (S)-2-[5-(3-Fluoro-benzyloxy)-1,3-dioxo-1,3-dihydro-isoindol-2-yl]-propionamide] | 8.15 | 5.24
17 | NCCN1C(=O)c2ccc(OCc3cccc(F)c3)cc2C1=O [Example 50, 2-(2-Amino-ethyl)-5-(3-fluoro-benzyloxy)-isoindole-1,3-dione 1:1 hydrochloride] | 7.41 | < 5.00
18 | NC(=O)[C@H](CO)N1C(=O)c2ccc(OCc3cccc(F)c3)cc2C1=O [Example 52, (S)-2-[5-(3-Fluoro-benzyloxy)-1,3-dioxo-1,3-dihydro-isoindol-2-yl]-3-hydroxy-propionamide] | 7.70 | < 5.00
